Assay results taken from patent publication US9018208B2, “Heterocycles as potassium channel modulators” (Icagen Inc., priority 2007, dated 2015).

These compounds were tested on SH-SY5Y M-currents (KCNQ2, KCNQ3 and KCNQ5) (assay: SH-SY5Y native cell line FLIPR assay (voltage-sensitive dye DiBAC)). Details: FLIPR assay, SH-SY5Y native cell line; Table 2; read-out: SH-SY5Y EC50.
Assay type: cell-based, mouse neuroblastoma, rat glioma hybrid cell line
How it was run: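 Response is peak DiBAC fluorescence change, normalised to the maximum from a positive control agent, sampled every 30 s over 25 min. Before compound addition, SH-SY5Y cells differentiated with PGE1 plus isomethylbutylxanthine were dye-loaded for 1 h in EBSS with […] DiBAC.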

| SMILES | EC50 |
| --- | --- |
| COc1ccn2c(-c3ccc(C(F)(F)F)cc3)c(NC(=O)CC(F)(F)F)nc2c1 [Compound 307, 3,3,3-trifluoro-N-(7-methoxy-3-(4-(trifluoromethyl)phenyl)imidazo[1,2-a]pyridin-2-yl)propanamide] | 3 to 10 µM |
| Cc1ccc2nc(NC(=O)Cc3ccc(F)cc3)c(-c3cccc(C(F)(F)F)c3)n2n1 [Compound 309, 2-(4-fluorophenyl)-N-(6-methyl-3-(3-(trifluoromethyl)phenyl)imidazo[1,2-b]pyridazin-2-yl)acetamide] | < 0.5 µM |
| O=C(Cc1ccc(Cl)cc1)Nc1nc2ccc(F)cn2c1-c1ccc(OC(F)(F)F)c(F)c1 [Compound 310, 2-(4-chlorophenyl)-N-(6-fluoro-3-(3-fluoro-4-(trifluoromethoxy)phenyl)imidazo[1,2-a]pyridin-2-yl)acetamide] | < 0.5 µM |
| O=C(CC1CCCC1)Nc1nc2ccc(F)cn2c1-c1ccc(OC(F)(F)F)c(F)c1 [Compound 311, 2-cyclopentyl-N-(6-fluoro-3-(3-fluoro-4-(trifluoromethoxy)phenyl)imidazo[1,2-a]pyridin-2-yl)acetamide] | < 0.5 µM |
| CC(C)C(C)C(=O)Nc1nc2ccc(F)cn2c1-c1ccc(OC(F)(F)F)c(F)c1 (stereo not shown) [Compound 312, N-(6-fluoro-3-(3-fluoro-4-(trifluoromethoxy)phenyl)imidazo[1,2-a]pyridin-2-yl)-2,3-dimethylbutanamide] | < 0.5 µM |
| CC(CC(=O)Nc1nc2ccc(F)cn2c1-c1ccc(OC(F)(F)F)c(F)c1)C(F)(F)F (stereo not shown) [Compound 313, 4,4,4-trifluoro-N-(6-fluoro-3-(3-fluoro-4-(trifluoromethoxy)phenyl)imidazo[1,2-a]pyridin-2-yl)-3-methyl butanamide] | < 0.5 µM |
| CC(C)C(C)C(=O)Nc1nc2ccc(F)cn2c1-c1cccc(Cl)c1 (stereo not shown) [Compound 314, N-(3-(3-chlorophenyl)-6-fluoroimidazo[1,2-a]pyridin-2-yl)-2,3-dimethylbutanamide] | < 0.5 µM |
| CC(CC(=O)Nc1nc2ccc(F)cn2c1-c1cccc(Cl)c1)C(F)(F)F (stereo not shown) [Compound 315, N-(3-(3-chlorophenyl)-6-fluoroimidazo[1,2-a]pyridin-2-yl)-4,4,4-trifluoro-3-methylbutanamide] | 0.5 to 3 µM |
| O=C(Cc1ccc(F)cc1)Nc1nc2ncc(Cl)cn2c1-c1ccc(C(F)(F)F)cc1 [Compound 317, N-(6-chloro-3-(4-(trifluoromethyl)phenyl)imidazo[1,2-a]pyrimidin-2-yl)-2-(4-fluorophenyl)acetamide] | 0.5 to 3 µM |
| CC(CC(=O)Nc1nc2ncc(Cl)cn2c1-c1ccc(C(F)(F)F)cc1)C(F)(F)F (stereo not shown) [Compound 318, N-(6-chloro-3-(4-(trifluoromethyl)phenyl)imidazo[1,2-a]pyrimidin-2-yl)-4,4,4-trifluoro-3-methylbutanamide] | 0.5 to 3 µM |
| CC(C)(C)CC(=O)Nc1nc2ncc(Cl)cn2c1-c1cccc(Cl)c1 [Compound 319, N-(6-chloro-3-(3-chlorophenyl)imidazo[1,2-a]pyrimidin-2-yl)-3,3-dimethylbutanamide] | 3 to 10 µM |
| O=C(Cc1ccc(F)cc1)Nc1nc2ncc(Cl)cn2c1-c1cccc(Cl)c1 [Compound 320, N-(6-chloro-3-(3-chlorophenyl)imidazo[1,2-a]pyrimidin-2-yl)-2-(4-fluorophenyl) acetamide] | 3 to 10 µM |
| CC(CC(=O)Nc1nc2ncc(Cl)cn2c1-c1cccc(Cl)c1)C(F)(F)F (stereo not shown) [Compound 321, N-(6-chloro-3-(3-chlorophenyl)imidazo[1,2-a]pyrimidin-2-yl)-4,4,4-trifluoro-3-methylbutanamide] | 3 to 10 µM |
| CC(C)(C)CC(=O)Nc1nc2ncc(Cl)cn2c1-c1ccc(C(F)(F)F)cc1 [Compound 322, N-(6-chloro-3-(4-(trifluoromethyl)phenyl)imidazo[1,2-a]pyrimidin-2-yl)-3,3-dimethylbutanamide] | 3 to 10 µM |
| CC(C)(C)CC(=O)Nc1nc2ncccn2c1-c1cccc(OC(F)(F)F)c1 [Compound 323, 3,3-dimethyl-N-(3-(3-(trifluoromethoxy)phenyl)imidazo[1,2-a]pyrimidin-2-yl)butanamide] | 3 to 10 µM |
| O=C(Cc1ccc(F)cc1)Nc1nc2ncccn2c1-c1cccc(OC(F)(F)F)c1 [Compound 324, 2-(4-fluorophenyl)-N-(3-(3-(trifluoromethoxy)phenyl)imidazo[1,2-a]pyrimidin-2-yl)acetamide] | 3 to 10 µM |
| CC(CC(=O)Nc1nc2ncccn2c1-c1cccc(OC(F)(F)F)c1)C(F)(F)F (stereo not shown) [Compound 325, 4,4,4-trifluoro-3-methyl-N-(3-(3-(trifluoromethoxy)phenyl)imidazo[1,2-a]pyrimidin-2-yl)butanamide] | 3 to 10 µM |
| O=C(Nc1nc2ccc(F)cn2c1-c1ccc(OC(F)(F)F)cc1)C1CCC(F)(F)CC1 [Compound 326, 4,4-difluoro-N-(6-fluoro-3-(4-(trifluoromethoxy)phenyl)imidazo[1,2-a]pyridin-2-yl)cyclohexanecarboxamide] | < 0.5 µM |
| O=C(Nc1nc2ccc(F)cn2c1-c1cccc(OC(F)(F)F)c1)C1CCC(F)(F)CC1 [Compound 327, 4,4-difluoro-N-(6-fluoro-3-(3-(trifluoromethoxy)phenyl)imidazo[1,2-a]pyridin-2-yl)cyclohexanecarboxamide] | < 0.5 µM |

| SMILES | EC50 |
| --- | --- |
| O=C(Nc1nc2ccc(F)cn2c1-c1cccc(C(F)(F)F)c1)C1CCC(F)(F)CC1 [Compound 328, 4,4-difluoro-N-(6-fluoro-3-(3-(trifluoromethyl)phenyl)imidazo[1,2-a]pyridin-2-yl)cyclohexanecarboxamide] | < 0.5 µM |
| CC(C)(C)CC(=O)Nc1nc2ncccn2c1-c1cccc(Cl)c1 [Compound 329, N-(3-(3-chlorophenyl)imidazo[1,2-a]pyrimidin-2-yl)-3,3-dimethylbutanamide] | 3 to 10 µM |
| O=C(Cc1ccc(F)cc1)Nc1nc2ncccn2c1-c1cccc(Cl)c1 [Compound 330, N-(3-(3-chlorophenyl)imidazo[1,2-a]pyrimidin-2-yl)-2-(4-fluorophenyl)acetamide] | 3 to 10 µM |
| CC(CC(=O)Nc1nc2ncccn2c1-c1cccc(Cl)c1)C(F)(F)F (stereo not shown) [Compound 331, N-(3-(3-chlorophenyl)imidazo[1,2-a]pyrimidin-2-yl)-4,4,4-trifluoro-3-methylbutanamide] | 3 to 10 µM |
| CC(C)(C)CC(=O)Nc1nc2ncc(F)cn2c1-c1cccc(C(F)(F)F)c1 [Compound 332, N-(6-fluoro-3-(3-(trifluoromethyl)phenyl)imidazo[1,2-a]pyrimidin-2-yl)-3,3-dimethylbutanamide] | 3 to 10 µM |
| CC(C)(C)CC(=O)Nc1nc2ncc(F)cn2c1-c1cccc(OC(F)(F)F)c1 [Compound 333, N-(6-fluoro-3-(3-(trifluoromethoxy)phenyl)imidazo[1,2-a]pyrimidin-2-yl)-3,3-dimethylbutanamide] | 0.5 to 3 µM |
| O=C(Nc1nc2ccc(F)cn2c1-c1ccc(OC(F)(F)F)c(F)c1)C1CCC1 [Compound 334, N-(6-fluoro-3-(3-fluoro-4-(trifluoromethoxy)phenyl)imidazo[1,2-a]pyridin-2-yl)cyclobutanecarboxamide] | 0.5 to 3 µM |
| O=C(Nc1nc2ccc(F)cn2c1-c1cccc(Cl)c1)C1CCC1 [Compound 335, N-(3-(3-chlorophenyl)-6-fluoroimidazo[1,2-a]pyridin-2-yl)cyclobutanecarboxamide] | 0.5 to 3 µM |
| CC(C)(C)CC(=O)Nc1nc2ccccn2c1-c1cccc(C(F)(F)F)c1 [Compound 336, 3,3-dimethyl-N-(3-(3-(trifluoromethyl)phenyl)imidazo[1,2-a]pyridin-2-yl)butanamide] | 0.5 to 3 µM |
| CC(CC(=O)Nc1nc2ccccn2c1-c1cccc(C(F)(F)F)c1)C(F)(F)F (stereo not shown) [Compound 337, 4,4,4-trifluoro-3-methyl-N-(3-(3-(trifluoromethyl)phenyl)imidazo[1,2-a]pyridin-2-yl)butanamide] | 0.5 to 3 µM |
| O=C(Cc1ccc(F)cc1)Nc1nc2ccccn2c1-c1cccc(C(F)(F)F)c1 [Compound 338, 2-(4-fluorophenyl)-N-(3-(3-(trifluoromethyl)phenyl)imidazo[1,2-a]pyridin-2-yl)acetamide] | 0.5 to 3 µM |
| COc1ccc2nc(NC(=O)CC(C)(C)C)c(-c3cccc(C(F)(F)F)c3)n2n1 [Compound 339, N-(6-methoxy-3-(3-(trifluoromethyl)phenyl)imidazo[1,2-b]pyridazin-2-yl)-3,3-dimethylbutanamide] | 0.5 to 3 µM |
| CC(=O)O[C@H](C(=O)Nc1nc2ccc(F)cn2c1-c1ccc(C(F)(F)F)cc1)C(C)(C)C [Compound 340, (S)-1-(6-fluoro-3-(4-(trifluoromethyl)phenyl)imidazo[1,2-a]pyridin-2-ylamino)-3,3-dimethyl-1-oxobutan-2-yl acetate] | 3 to 10 µM |
| CC(C)(C)[C@H](O)C(=O)Nc1nc2ccc(F)cn2c1-c1ccc(C(F)(F)F)cc1 [Compound 341, (S)—N-(6-fluoro-3-(4-(trifluoromethyl)phenyl)imidazo[1,2-a]pyridin-2-yl)-2-hydroxy-3,3-dimethylbutanamide] | 0.5 to 3 µM |
| CC(C)(C)CC(=O)Nc1nc2ccccn2c1-c1cccc(OC(F)(F)F)c1 [Compound 342, 3,3-dimethyl-N-(3-(3-(trifluoromethoxy)phenyl)imidazo[1,2-a]pyridin-2-yl)butanamide] | < 0.5 µM |
| CC(CC(=O)Nc1nc2ccccn2c1-c1cccc(OC(F)(F)F)c1)C(F)(F)F (stereo not shown) [Compound 343, 4,4,4-trifluoro-3-methyl-N-(3-(3-(trifluoromethoxy)phenyl)imidazo[1,2-a]pyridin-2-yl)butanamide] | 0.5 to 3 µM |
| O=C(Cc1ccc(F)cc1)Nc1nc2ccccn2c1-c1cccc(OC(F)(F)F)c1 [Compound 344, 2-(4-fluorophenyl)-N-(3-(3-(trifluoromethoxy)phenyl)imidazo[1,2-a]pyridin-2-yl)acetamide] | < 0.5 µM |
| O=C(Nc1nc2ccc(F)cn2c1-c1ccc(C(F)(F)F)cc1)N1CCC(F)(F)CC1 [Compound 345, 4,4-difluoro-N-(6-fluoro-3-(4-(trifluoromethyl)phenyl)imidazo[1,2-a]pyridin-2-yl)piperidine-1-carboxamide] | 0.5 to 3 µM |
